Patent US20050002879A1, “External skin compositions” (priority 2001, published 2005)

How the values were obtained:
Format in all cases: cell-based
Human keratinocytes [1] = test: Test Example 1: hyaluronic acid production test in human normal keratinocytes; conditions: N-acetylglucosamine 5 mmol/L, retinyl palmitate 0.0001%, retinoic acid 1.0 mmol/L; for production of hyaluronic acid increased, times as compared with the no-addition group: 24 hours; for Hyaluronic acid production promotion ratio (% ± S.D.): % of hyaluronic acid in medium without test substance, 24 hours after addition
Experimental: Hyaluronic Acid Production Test to Human Normal Keratinocytes)
(§1) Human keratinocytes (manufactured by Kurabo Industries, Ltd.) were seeded in a 24-well plate, cultured to confluence in a growth medium, and then 5 mmol/L of N-acetylglucosamine, 0.0001% of retinyl palmitate, 0.0001% of retinyl palmitate+5 mmol/L of N-acetylglucosamine, 1.0 mmol/L of retinoic acid, or 1.0 mmol/L of retinoic acid+5 mmol/L of N-acetylglucosamine were added, respectively. 24 hours after the addition, hyaluronic acid released into the medium was determined. The determination of hyaluronic acid was conducted using a commercially available hyaluronic acid determination kit (manufactured by Chugai Diagnostics Science).
The effects of test substances were defined as percentage (%) of the amount of hyaluronic acid in a cultured medium without a test substance.

Human keratinocytes [2] = test: Test Example 3: hyaluronic acid production promotion test in human keratinocytes (â-carotene with or without NAG); conditions: â-carotene 10 mmol/L; for amount of hyaluronic acid: n=3, 24 hours
Experimental: as §1
Hyaluronic Acid Production Promotion Test to Human Keratinocytes)
In the same manner as in Test Example 1, the test was conducted and the amount of hyaluronic acid was determined (n=3). As the test substance, 10 mmol/L of â-carotene (hereinafter referred to as âCAR), NAG, and NAG+âCAR were used. The results are shown below and in FIG. 2.

Human keratinocytes [3] = test: Test Example 2: hyaluronic acid production test in human keratinocytes (retinoids with or without NAG); conditions: RA 1 mmol/L, ROH 1 mmol/L, RPal 0.001%, RAce 0.001%, NAG 5 mmol/L; for amount of hyaluronic acid released into the medium: n=3, 24 hours
Experimental: as §1
Hyaluronic Acid Production Test to Human Keratinocytes
In the same manner as in Test Example 1, the test was conducted (n=3). As the test substance, 1 mmol/L of retinoic acid (hereinafter referred to as RA), 1 mmol/L of retinol (hereinafter referred to as ROH), 0.001% of retinyl palmitate (hereinafter referred to as RPal) and 0.001% of retinyl acetate (hereinafter referred to as RAce) were used, and the determination was conducted with respect to the case where 5 mmol/L of N-acetylglucosamine (hereinafter referred to as NAG) and each of the above test substances were simultaneously added. The results are shown below and in FIG. 1.

Compound | production of hyaluronic acid increased, times as compared with the no-addition group (Human keratinocytes [1]) [times] | Hyaluronic acid production promotion ratio (% ± S.D.) (Human keratinocytes [1]) [%] | amount of hyaluronic acid (Human keratinocytes [2]) [ig/well] | production of hyaluronic acid increased, times as compared with the no-addition group (Human keratinocytes [2]) [times] | production of hyaluronic acid increased, times as compared with the no-addition group (Human keratinocytes [3]) [times] | amount of hyaluronic acid released into the medium (Human keratinocytes [3]) [ig/well]
CC(=O)N[C@H]1C(O)O[C@H](CO)[C@@H](O)[C@@H]1O (some centres unmarked) [N-acetylglucosamine] | 1.55 | 155 ± 11.8 | 0.18 | 1.3 | 1.1 | 0.12
CC1=C(/C=C/C(C)=C/C=C/C(C)=C/C(=O)O)C(C)(C)CCC1 [retinoic acid, reference compound] | 2.5 | 250 ± 20.8 | – | – | 3.4 | 0.37
CC1=C(/C=C/C(C)=C/C=C/C(C)=C/CO)C(C)(C)CCC1 [retinol] | – | – | – | – | 1.4 | 0.15
CC(=O)OC/C=C(C)/C=C/C=C(C)/C=C/C1=C(C)CCCC1(C)C [retinyl acetate] | – | – | – | – | 1.6 | 0.18
CCCCCCCCCCCCCCCC(=O)OC/C=C(C)/C=C/C=C(C)/C=C/C1=C(C)CCCC1(C)C [retinyl palmitate] | 1.23 | 123 ± 16.4 | – | – | 2.0 | 0.22
CC1=CCCC(C)(C)C1/C=C/C(C)=C/C=C/C(C)=C/C=C/C=C(C)/C=C/C=C(C)/C=C/C1=C(C)CCCC1(C)C (centres unmarked) [â-carotene] | – | – | 0.16 | 1.1 | – | –
